Measurements from patent publication US20250270180A1, “MEK INHIBITORS AND THERAPEUTIC USES THEREOF” (Immuneering Corporation, priority 2020, published 2025).

Tested on: A549 pERK
Assay: A549-pERK, 2 h (quantitative Western, Jess)
Type: cell-based
Details: Homo sapiens, phospho:total ratio normalized to DMSO control
Method: A549 or […] cells were treated in duplicate for two hours with compounds at varying concentrations. After two hours, the cells were lysed, snap frozen, and stored at −80° C. After storage, the lysate was quantified with the Bradford assay. Before the lysates were prepared to run on the Jess, the lysates were diluted to 1 mg/mL for pERK analysis and 1.5 mg/mL pMEK analysis using quantitative Western blotting. ERK and MEK phosphorylation levels were estimated by taking the ratio of phospho-protein to total protein and normalizing to the DMSO control. The results of this study are described in Tables 14-16.

SMILES | activity at 0.01 µM (A549, 2 h, 10 nM) [%] | activity at 10 µM (A549, 2 h) [%] | activity at 0.01 µM (A549, 10 nM) [%]
CNS(=O)(=O)Nc1cccc(Cc2c(CO)c3ccc(OC(=O)N(C)C)cc3oc2=O)c1F [Compound 180] | 75 | – | –
CNS(=O)(=O)Nc1cccc(Cc2c(CN(C)c3ccccc3Cl)c3ccc(OC(=O)N(C)C)cc3oc2=O)c1F [Compound 99] | 98.9 | – | –
CNS(=O)(=O)Nc1cccc(Cc2c(CC(=O)NC3CCOCC3)c3ccc(OC(=O)N(C)C)cc3oc2=O)c1F [Compound 215] | 100 | 11.8 | –
CNS(=O)(=O)Nc1cccc(Cc2c(CN3CC4(COC4)C3)c3ccc(OC(=O)N(C)C)cc3oc2=O)c1F [Compound 152] | 70.5 | – | –
CNS(=O)(=O)Nc1cccc(Cc2c(CNC(=O)C(C)(C)O)c3ccc(OC(=O)N(C)C)cc3oc2=O)c1F [Compound 212] | 100 | 13 | –
CNS(=O)(=O)Nc1cccc(Cc2c(CN3CCNC(=O)CC3)c3ccc(OC(=O)N(C)C)cc3oc2=O)c1F [Compound 158] | 80 | – | –
C#CCNC(=O)CNCc1c(Cc2cccc(NS(=O)(=O)NC)c2F)c(=O)oc2cc(OC(=O)N(C)C)ccc12 [Compound 218] | 113 | 9.46 | –
CNS(=O)(=O)Nc1cccc(Cc2c(CNCC(=O)Nc3ccccc3)c3ccc(OC(=O)N(C)C)cc3oc2=O)c1F [Compound 223] | 119 | 3.04 | –
CNS(=O)(=O)Nc1cccc(Cc2c(CNCCN(C)C)c3ccc(OC(=O)N(C)C)cc3oc2=O)c1F [Compound 58] | 98.7 | – | –
CCS(=O)(=O)Nc1cccc(Cc2c(CN(C)C)c3ccc(OC(=O)N(C)C)cc3oc2=O)c1F [Compound 120] | 77.2 | – | –
CNS(=O)(=O)Nc1cccc(Cc2c(CC(=O)N3CC(OC)C3)c3ccc(OC(=O)N(C)C)cc3oc2=O)c1F [Compound 216] | 89.5 | 4.51 | –
CNS(=O)(=O)Nc1cccc(Cc2c(CNc3ccccc3)c3ccc(OC(=O)N(C)C)cc3oc2=O)c1F [Compound 30] | 54.3 | – | –
CNS(=O)(=O)Nc1cccc(Cc2c(CN3CCOCC3=O)c3ccc(OC(=O)N(C)C)cc3oc2=O)c1F [Compound 181] | 100 | 22.2 | –
CNS(=O)(=O)Nc1cccc(Cc2c(CNc3nccs3)c3ccc(OC(=O)N(C)C)cc3oc2=O)c1F [Compound 94] | 93.5 | – | –
C#CCN(C)Cc1c(Cc2cccc(NS(=O)(=O)NC)c2F)c(=O)oc2cc(OC(=O)N(C)C)ccc12 [Compound 76] | 62.1 | – | –
CN(C)C(=O)Oc1ccc2c(CN3CCC3)c(Cc3ccnc(NS(=O)(=O)C4CC4)c3F)c(=O)oc2c1 [Compound 155] | 84.9 | – | –
CNS(=O)(=O)Nc1cccc(Cc2c(CNCC(=O)N(C)c3ccccc3)c3ccc(OC(=O)N(C)C)cc3oc2=O)c1F [Compound 220] | 109 | 4.28 | –
CNS(=O)(=O)Nc1cccc(Cc2c(CN3CC4CC3CN4)c3ccc(OC(=O)N(C)C)cc3oc2=O)c1F (centres unmarked) [Compound 138] | 96.9 | – | –
CNS(=O)(=O)Nc1cccc(Cc2c(CNCCC(F)(F)F)c3ccc(OC(=O)N(C)C)cc3oc2=O)c1F [Compound 66] | 104 | – | –
CNS(=O)(=O)Nc1cccc(Cc2c(CN3CC(C(N)=O)C3)c3ccc(OC(=O)N(C)C)cc3oc2=O)c1F [Compound 173] | 97.7 | – | –

SMILES | activity at 0.01 µM (A549, 2 h, 10 nM) [%] | activity at 10 µM (A549, 2 h) [%] | activity at 0.01 µM (A549, 10 nM) [%]
CNS(=O)(=O)Nc1cccc(Cc2c(CNc3cn[nH]c3)c3ccc(OC(=O)N(C)C)cc3oc2=O)c1F [Compound 92] | 93.8 | – | –
CNS(=O)(=O)Nc1cccc(Cc2c(CNc3ccc(OC)nc3)c3ccc(OC(=O)N(C)C)cc3oc2=O)c1F [Compound 193] | 90.7 | – | –
CNS(=O)(=O)Nc1cccc(Cc2c(CN3CCN(C(=O)c4ccccc4)CC3)c3ccc(OC(=O)N(C)C)cc3oc2=O)c1F [Compound 65] | 100 | – | –
CNS(=O)(=O)Nc1cccc(Cc2c(CN(C)C)c3ccc(OC(=O)N4CCN(C)CC4)cc3oc2=O)c1F [Compound 127] | 110 | – | –
CNS(=O)(=O)Nc1cccc(Cc2c(CN3CCN(S(C)(=O)=O)CC3)c3ccc(OC(=O)N(C)C)cc3oc2=O)c1F [Compound 68] | 68.9 | – | –
CNS(=O)(=O)Nc1cccc(Cc2c(CC(=O)N3CCN(C)CC3)c3ccc(OC(=O)N(C)C)cc3oc2=O)c1F [Compound 195] | 113 | – | –
CNS(=O)(=O)Nc1nccc(Cc2c(CN3CCNCC3)c3ccc(Oc4ncccn4)cc3oc2=O)c1F [Compound 104] | – | – | 77.3
CNS(=O)(=O)Nc1cccc(Cc2c(CN(C)C)c3ccc(OC(=S)N(C)C)cc3oc2=O)c1F [Compound 204] | – | – | 83.4
CNS(=O)(=O)Nc1cccc(Cc2c(CC(=O)Nc3ccn[nH]3)c3ccc(OC(=O)N(C)C)cc3oc2=O)c1F [Compound 202] | 119 | – | –
CCN(C)Cc1c(Cc2cccc(NS(=O)(=O)CC)c2F)c(=O)oc2cc(OC(=O)N(C)C)c(Cl)cc12 [Compound 166] | 60.9 | – | –
CNS(=O)(=O)Nc1cccc(Cc2c(CNC(=O)c3nn[nH]n3)c3ccc(OC(=O)N(C)C)cc3oc2=O)c1F [Compound 213] | 100 | 70.1 | –
CNS(=O)(=O)Nc1cccc(Cc2c(CN3CC(C)(C)C3)c3ccc(OC(=O)N(C)C)cc3oc2=O)c1F [Compound 143] | 104 | – | –
CNS(=O)(=O)Nc1cccc(Cc2c(CNC(C)c3ccccc3)c3ccc(OC(=O)N(C)C)cc3oc2=O)c1F (centres unmarked) [Compound 63] | 88 | – | –
CNS(=O)(=O)Nc1nccc(Cc2c(CN(C)C)c3ccc(OC(=O)N(C)C)cc3oc2=O)c1F [Compound 124] | 94.6 | – | –
CNS(=O)(=O)Nc1cccc(Cc2c(CNC(=O)c3c[nH]nn3)c3ccc(OC(=O)N(C)C)cc3oc2=O)c1F [Compound 211] | 121 | 70.8 | –
CNS(=O)(=O)Nc1cccc(Cc2c(CN3CCN(C4CC4)CC3)c3ccc(OC(=O)N(C)C)cc3oc2=O)c1F [Compound 64] | 73 | – | –
CCC(=O)NCc1c(Cc2cccc(NS(=O)(=O)NC)c2F)c(=O)oc2cc(OC(=O)N(C)C)ccc12 [Compound 207] | 97.4 | 11.3 | –
CNS(=O)(=O)Nc1cccc(Cc2c(CN(C)C)c3ccc(Oc4ncccn4)cc3oc2=O)c1F [Compound 129] | – | – | 92.2
CNS(=O)(=O)Nc1cccc(Cc2c(CC(=O)N(C)CC#N)c3ccc(OC(=O)N(C)C)cc3oc2=O)c1F [Compound 198] | 109 | – | –
CNS(=O)(=O)Nc1cccc(Cc2c(CN3CCC4(CN(C)C4)C3)c3ccc(OC(=O)N(C)C)cc3oc2=O)c1F [Compound 159] | 82.7 | – | –

SMILES | activity at 0.01 µM (A549, 2 h, 10 nM) [%] | activity at 10 µM (A549, 2 h) [%] | activity at 0.01 µM (A549, 10 nM) [%]
CNS(=O)(=O)Nc1cccc(Cc2c(CNC(=O)C(C)C)c3ccc(OC(=O)N(C)C)cc3oc2=O)c1F [Compound 208] | 105 | 23.6 | –
CNS(=O)(=O)Nc1cccc(Cc2c(CNCc3cccc(C(F)(F)F)c3)c3ccc(OC(=O)N(C)C)cc3oc2=O)c1F [Compound 59] | 105 | – | –
CNS(=O)(=O)Nc1cccc(Cc2c(CNCc3ccncc3)c3ccc(OC(=O)N(C)C)cc3oc2=O)c1F [Compound 29] | 96 | – | –
CNS(=O)(=O)Nc1cccc(Cc2c(CNCc3ccco3)c3ccc(OC(=O)N(C)C)cc3oc2=O)c1F [Compound 56] | 92.9 | – | –
CNS(=O)(=O)Nc1cccc(Cc2c(CCNCC3CC3)c3ccc(OC(=O)N(C)C)cc3oc2=O)c1F [Compound 186] | 80.1 | 0.74 | –
CNS(=O)(=O)Nc1cccc(Cc2c(CN3CC(C)C3)c3ccc(OC(=O)N(C)C)cc3oc2=O)c1F [Compound 142] | 94.6 | – | –
CNS(=O)(=O)Nc1cccc(Cc2c(CNCCCCO)c3ccc(OC(=O)N(C)C)cc3oc2=O)c1F [Compound 71] | 99.4 | – | –
CNS(=O)(=O)Nc1cccc(Cc2c(CN3CC(C#N)C3)c3ccc(OC(=O)N(C)C)cc3oc2=O)c1F [Compound 172] | 111 | – | –
CNS(=O)(=O)Nc1cccc(Cc2c(CNc3ccn[nH]3)c3ccc(OC(=O)N(C)C)cc3oc2=O)c1F [Compound 31] | 66.7 | – | –
CNS(=O)(=O)Nc1cccc(Cc2c(CN3CC(N(C)C)C3)c3ccc(OC(=O)N(C)C)cc3oc2=O)c1F [Compound 154] | 64 | – | –
CNS(=O)(=O)Nc1cccc(Cc2c(CN(C)c3cccc(Cl)c3)c3ccc(OC(=O)N(C)C)cc3oc2=O)c1F [Compound 95] | 80.2 | – | –
CNS(=O)(=O)Nc1cccc(Cc2c(CNc3ccn(C)n3)c3ccc(OC(=O)N(C)C)cc3oc2=O)c1F [Compound 89] | 83.7 | – | –
CNC1CN(Cc2c(Cc3cccc(NS(=O)(=O)NC)c3F)c(=O)oc3cc(OC(=O)N(C)C)ccc23)C1 [Compound 164] | 102 | – | –
CNS(=O)(=O)Nc1cccc(Cc2c(CNCC3CC3)c3ccc(OC(=O)N(C)C)cc3oc2=O)c1F [Compound 26] | 94.2 | – | –
CNS(=O)(=O)Nc1cccc(Cc2c(CNC(N)=O)c3ccc(OC(=O)N(C)C)cc3oc2=O)c1F [Compound 105] | – | 7.39 | –
CNS(=O)(=O)Nc1cccc(Cc2c(CNCC(=O)O)c3cc(Cl)c(OC(=O)N(C)C)cc3oc2=O)c1F [Compound 133] | 88.1 | 23.4 | –
CNS(=O)(=O)Nc1nccc(Cc2c(CN3CC(F)(F)C3)c3ccc(OC(=O)N(C)C)cc3oc2=O)c1F [Compound 149] | 69.1 | – | –
CNS(=O)(=O)Nc1cccc(Cc2c(CNCC(=O)N(C)C)c3ccc(OC(=O)N(C)C)cc3oc2=O)c1F [Compound 57] | 106 | 7.33 | –
CCN1CCN(Cc2c(Cc3cccc(NS(=O)(=O)NC)c3F)c(=O)oc3cc(OC(=O)N(C)C)ccc23)CC1=O [Compound 69] | 101 | – | –
CNS(=O)(=O)Nc1cccc(Cc2c(CN3CC(N)C3)c3ccc(OC(=O)N(C)C)cc3oc2=O)c1F [Compound 165] | 104 | – | –
